Source: paper PMC8483441 (Journal of Medicinal Chemistry, 2021)
≈ marks a conversion by molar mass, not a printed value. Entries after “also recorded” stand apart in the source; their conditions may differ. Where two headings read alike, the source gives them in different places. Square brackets hold non-standard residues; d marks the D form. Peptide text beside a SMILES is read from it. hArg = N=C(N)NCCCC[C@H](N)C(=O)O; Dab = NCC[C@H](N)C(=O)O

Key:
50% (v/v) Human Serum = conditions: up to 480 min
E. coli [1] = experiment: Antimicrobial resistance, recurrent incubation; type: cell-based; conditions: for MIC: Escherichia coli
Protocol: To test whether recurrent incubation of bacteria with peptides could induce resistance, E. coli (10^7 cfu/mL) were incubated with peptides (1 μM) or ciprofloxacin (1 μg/mL) for 1 h. After incubation, cells were centrifuged, washed, and grown overnight in Mueller-Hinton medium. The cycle of incubation and growth was repeated in a cyclic manner for 7 days, and each day, cultures were tested for MIC to detect resistance.

S. flexneri = conditions: 24 h
Excerpt: Purified horse red blood cells were acquired from Thermo Fisher Scientific (Hampshire, England). Human serum was purchased from Sigma (St Louis, USA). E. coli was obtained from the Coli Genetic Stock Center (BW25113). S. flexneri (ATCC 29903), A. baumannii (ATCC 15308), Pseudomonas sp. (ATCC 15915), and S. enterica (ATCC 14028) were obtained from the CECT (Valencia, Spain). Clinical strains were supplied by the Vall d’Hebron Hospital (Barcelona, Spain). MRC5 fibroblasts were obtained from the Cytometry and Cell Culture Facility (SCAC, UAB) and originally purchased from ATCC.
The antibiotic activity was defined by the minimum peptide concentration where the microorganism is unable to grow. The assay was done in polypropylene 96-well plates (Greiner, Frickenhausen, Germany) to avoid peptide binding to plate wells. Peptides were dissolved in water containing 0.4% w/v bovine serum albumin (BSA) and 0.02% v/v glacial acetic acid to prevent self-aggregation, following the reference protocol by Wiegand et al.,[42] based on the classical microtiter broth dilution recommended by the […]. Initial bacteria inoculum was adjusted to 5 × 10^5 CFU/mL in Mueller-Hinton (MH) medium. Incubations were kept at 37 °C for 24 h. Results are the average of three independent studies. MIC assays in the presence of serum were performed by incubating the peptide with human serum at a 1:1 ratio. Then, 10^6 cfu/mL of Pseudomonas sp. were incubated with serial dilutions of the peptides for 4 h. To determine the MBC, 50 μL from all wells were seeded into Petri plates and incubated for 24 h. The MBC concentration was attributed to the lowest concentration without detectable bacterial growth for each peptide.

[2] = Cytotoxicity in mammalian cells (MTT assay); type: cell-based; conditions: MRC-5 cytotoxicity (IC50)
Protocol: MRC-5 cells were grown in Eagle’s minimum essential medium (MEMα), supplemented with 10% fetal bovine serum (FBS). 96-well plates were seeded with 3 × 10^4 cells/well and cultured overnight in order to get cells adhered into the plate and then incubated with two-fold peptide serial dilutions. After 4 h of incubation, the medium containing the peptides was replaced by MEMα supplemented with FBS and 3-(4,5-dimethylthiazol-2-yl)-2,5-diphenyltetrazolium bromide (MTT) at 0.4 mg/mL and incubated for 150 min. Detection of formazan crystals in the living cells was done by cell disruption by addition of 200 μL of dimethyl sulfoxide (DMSO) followed by absorbance measuring at 600 nm in a Tecan Infinite F Nano+ microplate reader (Tecan, Germany). Results are the average of three independent studies.

S. enterica = type: cell-based, Salmonella enterica; conditions: 24 h
Protocol: (§1) Human serum was purchased from Sigma (St Louis, USA).
(§2) Incubations were kept at 37 °C for 24 h. Results are the average of three independent studies.

Pseudomonas sp. [3] = experiment: Minimum bactericidal concentration (MBC); type: cell-based; conditions: 50 μL from MIC wells seeded into Petri plates, 24 h; lowest concentration without detectable growth
Protocol: as §2

Shigella flexneri = conditions: 50 μL from MIC wells seeded into Petri plates, 24 h; lowest concentration without detectable growth
Protocol: The antibiotic activity was defined by the minimum peptide concentration where the microorganism is unable to grow. The assay was done in polypropylene 96-well plates (Greiner, Frickenhausen, Germany) to avoid peptide binding to plate wells. Peptides were dissolved in water containing 0.4% w/v bovine serum albumin (BSA) and 0.02% v/v glacial acetic acid to prevent self-aggregation, following the reference protocol by Wiegand et al.,[42] based on the classical microtiter broth dilution recommended by the National Committee of Laboratory Safety and Standards (NCLSS). Initial bacteria inoculum was adjusted to 5 × 10^5 CFU/mL in Mueller-Hinton (MH) medium. Incubations were kept at 37 °C for 24 h. Results are the average of three independent studies. […] To determine the MBC, 50 μL from all wells were seeded into Petri plates and incubated for 24 h. The MBC concentration was attributed to the lowest concentration without detectable bacterial growth for each peptide.

E. coli [4] = type: cell-based, Escherichia coli; conditions: 24 h
Protocol: as §1, §2

A. baumannii = type: cell-based, Acinetobacter baumannii; conditions: 24 h
Protocol: as §1, §2

horse red blood cells = experiment: Hemolytic activity; type: cell-based
Protocol: The peptide toxicity was determined detecting the disruption of horse red blood cells, following a previous assay report.[35] 10-fold diluted cells in PBS were centrifuged three times at 800g to eliminate the hemoglobin from disrupted cells. After the last resuspension, erythrocytes were incubated with the peptides for 4 h at 37 °C. The detection was done measuring the supernatant absorbance in a VICTOR3 multilabel plate reader (Perkin Elmer, Waltham, Massachusetts) at 540 nm in a microplate reader. Percentage of hemolysis was calculated through a pattern done with dilutions of total cell lysis done with a 1% Triton X-100 buffer. Results are the average of three independent studies.

Acinetobacter baumannii = type: cell-based; conditions: 24 h
Protocol: as §2

Salmonella enterica = type: cell-based; conditions: 24 h
Protocol: as §2

Escherichia coli = type: cell-based; conditions: 24 h
Protocol: as §2

Pseudomonas sp. [5] = experiment: MIC of peptides incubated with human serum; type: cell-based; conditions: peptide incubated with human serum 1:1; 10^6 cfu/mL Pseudomonas sp., 4 h
Protocol: as §2

Pseudomonas sp. [6] = experiment: MIC, broth microdilution; type: cell-based; conditions: Pseudomonas sp. ATCC 15915; Mueller-Hinton medium, 5 × 10^5 CFU/mL, 37 °C, 24 h; average of three independent studies
Protocol: as §1, §2

[7] = 50 μL from MIC wells seeded into Petri plates, lowest concentration without detectable growth

| Compound | cleaved bond (50% (v/v) Human Serum) | MIC S. flexneri (S. flexneri) [µM] | IC50 [2] [µM] | MIC S. enterica (S. enterica) [µM] | MBC Pseudomonas sp. (Pseudomonas sp. [3]) [µM] | MBC Shigella flexneri (Shigella flexneri) [µM] | MIC E. coli (E. coli [4]) [µM] | MIC A. baumannii (A. baumannii) [µM] | hemolysis % (250 μM peptide) (horse red blood cells; red cells of horse, 4 h, 250) [%] | MBC Acinetobacter baumannii (Acinetobacter baumannii) [µM] | MBC Salmonella enterica (Salmonella enterica) [µM] | MBC Escherichia coli (Escherichia coli) [µM] | MIC in Pseudomonas sp., peptides incubated with human serum (Pseudomonas sp. [5]) [µM] | MIC Pseudomonas sp. (Pseudomonas sp. [6]) [µM] | also measured |
| --- | --- | --- | --- | --- | --- | --- | --- | --- | --- | --- | --- | --- | --- | --- | --- |
| RPFTRAQWFAIQHISPRTIAMRAINNYRWR | Pro2-Phe3 |  |  |  |  |  |  |  |  |  |  |  |  |  |  |
| OPFTOAQWFAIQHISPOTIAMOAINNYOWO | Pro2-Phe3 |  |  |  |  |  |  |  |  |  |  |  |  |  | fragment found (50% (v/v) Human Serum): OPFTOAQWFAIQHISPO-------------; also recorded: -----------------TIAMOAINNYOWO; also recorded: OPFTOAQWFAIQHIS---------------; also recorded: ------QWFAIQHISPOTIAMOAINNY--- |
| O=C(O)c1cn(C2CC2)c2cc(N3CCNCC3)c(F)cc2c1=O [ciprofloxacin] |  |  |  |  |  |  |  |  |  |  |  |  |  |  | MIC (E. coli [1]; after four cycles of incubation with ciprofloxacin (1 μM; 1 μg/mL elsewhere in the source), 1 h per cycle, 10^7 cfu/mL, read-out: MIC against E. coli after four cycles of incubation): 5 µM (≈ 1.66 µg/mL); MIC (E. coli [1]; start of recurrent incubation, read-out: MIC against E. coli before resistance cycles): 1.5 µM (≈ 0.497 µg/mL) |
| CC[C@H](C)[C@H](NC(=O)[C@H](C)NC(=O)[C@H](CCCCNC(=N)N)NC(=O)[C@H](CCSC)NC(=O)[C@H](C)NC(=O)[C@@H](NC(=O)[C@@H](NC(=O)[C@H](CCCCNC(=N)N)NC(=O)[C@@H]1CCCN1C(=O)[C@H](CO)NC(=O)[C@@H](NC(=O)[C@H](Cc1c[nH]cn1)NC(=O)[C@H](CCC(N)=O)NC(=O)[C@@H](NC(=O)[C@H](C)NC(=O)[C@H](Cc1ccccc1)NC(=O)[C@H](Cc1c[nH]c2ccccc12)NC(=O)[C@H](CCC(N)=O)NC(=O)[C@H](C)NC(=O)[C@H](CCCCNC(=N)N)NC(=O)[C@@H](NC(=O)[C@H](Cc1ccccc1)NC(=O)[C@@H]1CCCN1C(=O)[C@@H](N)CCCCNC(=N)N)[C@@H](C)O)[C@@H](C)CC)[C@@H](C)CC)[C@@H](C)O)[C@@H](C)CC)C(=O)N[C@@H](CC(N)=O)C(=O)N[C@@H](CC(N)=O)C(=O)N[C@@H](Cc1ccc(O)cc1)C(=O)N[C@@H](CCCCNC(=N)N)C(=O)N[C@@H](Cc1c[nH]c2ccccc12)C(=O)N[C@@H](CCCCNC(=N)N)C(N)=O [compound 4] (H-[hArg]PFT[hArg]AQWFAIQHISP[hArg]TIAM[hArg]AINNY[hArg]W[hArg]-NH2) |  | 3.13 (≈ 12 µg/mL) | 7.6 ± 0.7 | 25 (≈ 96 µg/mL) | 3.13 (≈ 12 µg/mL) | 3.13 (≈ 12 µg/mL) | 6.25 (≈ 24 µg/mL) | 12.5 (≈ 48 µg/mL) | 43 ± 1 | 12.5 (≈ 48 µg/mL) | 25 (≈ 96 µg/mL) | 6.25 (≈ 24 µg/mL) | 6.25 | 3.13 (≈ 12 µg/mL) |  |
| CC[C@H](C)[C@H](NC(=O)[C@H](CCCCN)NC(=O)[C@H](CCC(=O)O)NC(=O)[C@H](CCCCN)NC(=O)[C@H](CO)NC(=O)[C@H](CCCCN)NC(=O)[C@H](CCCNC(=N)N)NC(=O)[C@H](Cc1ccccc1)NC(=O)[C@H](Cc1ccccc1)NC(=O)[C@H](CC(=O)O)NC(=O)CNC(=O)[C@H](CC(C)C)NC(=O)[C@@H](N)CC(C)C)C(=O)NCC(=O)N[C@@H](CCCCN)C(=O)N[C@@H](CCC(=O)O)C(=O)N[C@@H](Cc1ccccc1)C(=O)N[C@@H](CCCCN)C(=O)N[C@@H](CCCNC(=N)N)C(=O)N[C@H](C(=O)N[C@H](C(=O)N[C@@H](CCC(N)=O)C(=O)N[C@@H](CCCNC(=N)N)C(=O)N[C@H](C(=O)N[C@@H](CCCCN)C(=O)N[C@@H](CC(=O)O)C(=O)N[C@@H](Cc1ccccc1)C(=O)N[C@@H](CC(C)C)C(=O)N[C@@H](CCCNC(=N)N)C(=O)N[C@@H](CC(N)=O)C(=O)N[C@@H](CC(C)C)C(=O)N[C@H](C(=O)N1CCC[C@H]1C(=O)N[C@@H](CCCNC(=N)N)C(=O)N[C@H](C(=O)N[C@@H](CCC(=O)O)C(=O)N[C@@H](CO)C(=O)O)[C@@H](C)O)C(C)C)[C@@H](C)CC)C(C)C)[C@@H](C)CC [LL-37, reference compound] |  |  |  |  | 1.56 (≈ 7.01 µg/mL) | 12.5 (≈ 56.2 µg/mL) |  |  |  |  |  |  |  | 1.56 (≈ 7.01 µg/mL) | MIC S. flexneri (S. flexneri; S. flexneri ATCC 29903, Mueller-Hinton medium, 5 × 10^5 CFU/mL, 37 °C, average of three independent studies): 12.5 µM (≈ 56.2 µg/mL); MIC S. enterica (S. enterica; S. enterica ATCC 14028, Mueller-Hinton medium, 5 × 10^5 CFU/mL, 37 °C, average of three independent studies): 12.5 µM (≈ 56.2 µg/mL); increase in MIC (induced resistance) in E. coli (E. coli [1]; 7 rounds of incubation with 1 μM peptide, below the MIC): did not detect a significant increase in MIC; MIC A. baumannii (A. baumannii; A. baumannii ATCC 15308, Mueller-Hinton medium, 5 × 10^5 CFU/mL, 37 °C, average of three independent studies): 6.25 µM (≈ 28.1 µg/mL); MBC Acinetobacter baumannii (Acinetobacter baumannii; [7]): 6.25 µM (≈ 28.1 µg/mL); MBC Salmonella enterica (Salmonella enterica; [7]): 12.5 µM (≈ 56.2 µg/mL); MBC Escherichia coli (Escherichia coli; [7]): 1.56 µM (≈ 7.01 µg/mL) |
| CC[C@H](C)[C@H](NC(=O)[C@H](C)NC(=O)[C@H](CCN)NC(=O)[C@H](CCSC)NC(=O)[C@H](C)NC(=O)[C@@H](NC(=O)[C@@H](NC(=O)[C@H](CCN)NC(=O)[C@@H]1CCCN1C(=O)[C@H](CO)NC(=O)[C@@H](NC(=O)[C@H](Cc1c[nH]cn1)NC(=O)[C@H](CCC(N)=O)NC(=O)[C@@H](NC(=O)[C@H](C)NC(=O)[C@H](Cc1ccccc1)NC(=O)[C@H](Cc1c[nH]c2ccccc12)NC(=O)[C@H](CCC(N)=O)NC(=O)[C@H](C)NC(=O)[C@H](CCN)NC(=O)[C@@H](NC(=O)[C@H](Cc1ccccc1)NC(=O)[C@@H]1CCCN1C(=O)[C@@H](N)CCN)[C@@H](C)O)[C@@H](C)CC)[C@@H](C)CC)[C@@H](C)O)[C@@H](C)CC)C(=O)N[C@@H](CC(N)=O)C(=O)N[C@@H](CC(N)=O)C(=O)N[C@@H](Cc1ccc(O)cc1)C(=O)N[C@@H](CCN)C(=O)N[C@@H](Cc1c[nH]c2ccccc12)C(=O)N[C@@H](CCN)C(N)=O [compound 3] (H-[Dab]PFT[Dab]AQWFAIQHISP[Dab]TIAM[Dab]AINNY[Dab]W[Dab]-NH2) |  | 6.25 (≈ 21.4 µg/mL) | 182 ± 9 | 50 (≈ 171 µg/mL) | 3.13 (≈ 10.7 µg/mL) | 6.25 (≈ 21.4 µg/mL) | 6.25 (≈ 21.4 µg/mL) | 50 (≈ 171 µg/mL) | 14 ± 6 | 50 (≈ 171 µg/mL) | 50 (≈ 171 µg/mL) | 6.25 (≈ 21.4 µg/mL) | 12.5 | 3.13 (≈ 10.7 µg/mL) | hemolysis % (250 μM peptide) (horse red blood cells): 10% |
